Laboratory results from patent US12275733B2, “Substituted pyrido[3,4-b]indoles for the treatment of cartilage disorders” (Sanofi, priority 2016, dated 2025).

Assays:
[1] = tested on: primary human chondrocyte pellet cultures; assay: Chondrogenesis activity assay in primary human chondrocyte pellet cultures (proteoglycan (aggrecan) induction, Blyscan assay); format: cell-based; conditions: for EC50: 336 h, proteoglycan (aggrecan) induction, primary human chondrocyte pellets, 2 weeks culture; for Emax: Homo sapiens, Chondrocyte, maximum percent proteoglycan (aggrecan) induction relative to the internal reference compound at 10 μM
Method: B) Chondrogenesis Activity Assay in Primary Human Chondrocyte Pellet Cultures
In this assay human articular chondrocytes are harvested by enzymatic digestion from articular cartilage and passaged several times to dedifferentiate the chondrocytes and to propagate the cells. Cells are cultured as cell pellets in the presence of the compounds of the invention over 2 weeks, and the chondrogenic differentiation is quantified by the production of the chondrogenic marker aggrecan (proteoglycan).
In detail, primary chondrocytes were harvested by enzymatic digestion from cartilage of osteoarthritis patients undergoing knee joint replacement surgery, and cultured in vitro. Cells were passaged one or two times and aliquots were cryopreserved. To initiate chondrogenesis experiments, cell aliquots were thawn, cultured in Chondrocyte Growth Medium (CGM, Lonza, #CC-3216) and passaged twice to further propagate and dedifferentiate cells. Pellet cultures were initiated by seeding 2.5×10E5 cells per well into a 96-well deep well plate in 600 μl chondrocyte differentiation medium consisting of Dulbecco's Modified Eagle Medium (DMEM, Invitrogen, #41966), 1×ITS-solution (Insulin/Transferrin/sodium selenite; 100× solution: Invitrogen, #51500056), 5 μg/mL linoleic acid (Sigma, #L1012-1G), 1× nonessential amino acids (100× solution: Invitrogen, #11140); 10 nM Dexamethasone, 2 ng/ml TGF-β1 (transforming growth factor β1) and 10 μg/ml ascorbic acid. Cells were spun to pellets by centrifugation (10 min, 400×g). Test compounds dissolved in DMSO were added to yield increasing compound concentrations, typically from 40 nM to 10 μM, and a final DMSO concentration of 0.1%, and the cell pellets cultured at 37° C., and 5% CO2 for 2 weeks. On each 96-well plate, control wells containing no test compound but the same concentration of DMSO, i.e. untreated cells, were included and used as reference for the determination of the effect of the test compounds on the cells, and wells containing an internal reference compound at a concentration of 10 μM were included and used as positive control and for standardizing the results. Chondrocyte differentiation medium and the compounds were exchanged twice weekly until harvest of the pellets.
For harvest of the pellets, medium was removed and the pellet was homogenized by enzymatic digestion. 100 μl of protease solution containing 0.4 mg/ml papain, 50 mM sodium phosphate, 4 mM EDTA and 0.48 mg/ml L-cysteine was added to the pellet in each well of a 96-well plate, the plate was sealed with a plate sealer foil (SILVERseal, Greiner Bio-One) and incubated for 4 to 6 hours at 65° C. with agitation.
The concentration of proteoglycan (aggrecan) was determined by quantification of the sulfated glycosaminoglycan side chains of aggrecan using the Blyscan assay (Kit from Biocolor). Aliquots of the papain-digest were transferred to 400 μl of Blyscan dye solution and incubated at room temperature for 45 min with agitation (1200 rpm). The mixture was centrifuged at 3760×g for 45 min, the supernatant was discarded, and the stained pellet was redissolved in 400 μl of Blyscan dissociation reagent by rotation until the precipitate completely resolved. Optical density was measured at 656 nm using a Tecan Saphire2 instrument, and the amount of proteoglycan determined against a standard curve with chondroitin-4-sulfate.
Induction of proteoglycan (aggrecan) was calculated for each compound concentration relative to the control (untreated cells, i.e. no test compound added), and an EC50 value (effective concentration 50 (in μM (micromollliter)), i.e. the compound concentration at which the effect of the compound on proteoglycan (aggrecan) induction reaches 50% of the maximum induction) was calculated using a sigmoidal signal fit procedure. […]

ATDC5 cells = assay: Chondrogenesis activity assay in ATDC5 cells (collagen type II induction, immunofluorescence); format: cell-based, mouse; conditions: Mus musculus; for EC50: collagen type II induction in ATDC5 cells, concentration reaching 50% of maximum induction; for Emax: maximum percent induction of collagen type II relative to internal reference compound at 10 μM, ATDC5 cells
Method in brief: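 Collagen type II was stained in fixed, permeabilized cells with an Alexa Fluor 488 secondary and measured by high-content fluorescence imaging. ATDC5 cells had 4 days at 37 °C in insulin-supplemented differentiation medium with compound, typically 40 nM–10 μM, 0.1% DMSO. DMSO wells and a 10 μM internal reference compound were used for normalization.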

Row | SMILES | EC50 [1] [nM] | Emax [1] [%] | EC50 (ATDC5 cells) [nM] | Emax (ATDC5 cells) [%]
1 | CCn1c2c(-c3cnn(Cc4ccccn4)c3)cc(Cl)cc2c2ccnc(C)c21 [Example 244, 6-Chloro-9-ethyl-1-methyl-8-(1-pyridin-2-ylmethyl-1H-pyrazol-4-yl)-9H-pyrido[3,4-b]indole] | 4900 | > 200 | 1100 | > 80
2 | FC(F)(F)Cn1c2cnccc2c2cc(Cl)cc(-c3cnn(-c4c(Cl)cccc4Cl)c3)c21 [Example 167, 6-Chloro-8-[1-(2,6-dichloro-phenyl)-1H-pyrazol-4-yl]-9-(2,2,2-trifluoro-ethyl)-9H-pyrido[3,4-b]indole] | 13000 | < 40 | > 10000 | 20 to 50
3 | Cc1nccc2c1[nH]c1c(-c3ccnc(N4CCNCC4)c3)cc(Cl)cc12 [Example 213, 6-Chloro-1-methyl-8-(2-piperazin-1-yl-pyridin-4-yl)-9H-pyrido[3,4-b]indole] | 1200 | 100 to 200 | > 1100 | < 20
4 | Clc1cc(-c2ccc(Cl)nc2Cl)c2c(c1)c1ccncc1n2CC1CC1 [Example 46, 6-Chloro-9-cyclopropylmethyl-8-(2,6-dichloro-pyridin-3-yl)-pyrido[3,4-b]indole] | 1000 | 100 to 200 | 1400 | > 80
5 | Cc1nccc2c1[nH]c1c(-c3cccc(OCc4nccn4C)c3)cc(Cl)cc12 [Example 271, 6-Chloro-1-methyl-8-[3-(1-methyl-1H-imidazol-2-ylmethoxy)-phenyl]-9H-pyrido[3,4-b]indole] | 4900 | > 200 | > 3300 | 20 to 50
6 | Clc1cc(-c2cnn(Cc3cccnc3)c2)c2c(c1)c1ccncc1n2CC1CC1 [Example 288, 6-Chloro-9-cyclopropylmethyl-8-(1-pyridin-3-ylmethyl-1H-pyrazol-4-yl)-9H-pyrido[3,4-b]indole] | 1200 | > 200 | 520 | > 80
7 | COc1ccc(-c2cc(Br)cc3c2[nH]c2c(C)nc(C)cc23)cc1 [Example 217, 6-Bromo-8-(4-methoxy-phenyl)-1,3-dimethyl-9H-pyrido[3,4-b]indole] | 4900 | > 200 | > 3300 | 20 to 50
8 | COc1ccc(-c2cc(Cl)cc3c2[nH]c2c(C)nccc23)cc1 [Example 149, 6-Chloro-8-(4-methoxy-phenyl)-1-methyl-9H-pyrido[3,4-b]indole] | 1100 | 100 to 200 | 330 | > 80
9 | Cc1ncc(-c2cc(Cl)cc3c4ccncc4n(CC(F)(F)F)c23)s1 [Example 171, 6-Chloro-8-(2-methyl-thiazol-5-yl)-9-(2,2,2-trifluoro-ethyl)-9H-pyrido[3,4-b]indole] | 4000 | > 200 | 1900 | > 80
10 | Cc1nccc2c1[nH]c1c(-c3ccnc(N4CCN(C)CC4)c3)cc(Cl)cc12 [Example 214, 6-Chloro-1-methyl-8-[2-(4-methyl-piperazin-1-yl)-pyridin-4-yl]-9H-pyrido[3,4-b]indole] | 1300 | 100 to 200 | > 3300 | < 20
11 | Cc1nccc2c1[nH]c1c(-c3ccc(N4CCN(C)CC4)nc3)cc(Cl)cc12 [Example 118, 6-Chloro-1-methyl-8-[6-(4-methyl-piperazin-1-yl)-pyridin-3-yl]-9H-pyrido[3,4-b]indole] | 1300 | 100 to 200 | > 1100 | 20 to 50
12 | Cc1nccc2c1[nH]c1c(-c3c[nH]nc3Cc3ccccc3)cc(Cl)cc12 [Example 199, 8-(3-Benzyl-1H-pyrazol-4-yl)-6-chloro-1-methyl-9H-pyrido[3,4-b]indole] | 22000 | < 40 | > 10000 | < 20
13 | Cc1nccc2c1[nH]c1c(-c3ccc(OCc4nccn4C)cc3)cc(Cl)cc12 [Example 39, 6-Chloro-1-methyl-8-[4-(1-methyl-1H-imidazol-2-ylmethoxy)-phenyl]-9H-pyrido[3,4-b]indole] | 3700 | > 200 | 170 | > 80
14 | COc1ccc(-c2cc(C#N)cc3c2[nH]c2c(C)nccc23)cc1 [Example 33, 8-(4-Methoxy-phenyl)-1-methyl-9H-pyrido[3,4-b]indole-6-carbonitrile] | 830 | 100 to 200 | 120 | > 80
15 | CCc1cc2c3cc(Br)cc(-c4cnn(C)c4)c3n(CC)c2c(C)n1 [Example 216, 6-Bromo-3,9-diethyl-1-methyl-8-(1-methyl-1H-pyrazol-4-yl)-9H-pyrido[3,4-b]indole] | 990 | > 200 | > 10000 | < 20
16 | FC(F)(F)Cn1c2cnccc2c2cc(Cl)cc(-c3cnn(-c4ccccc4)c3)c21 [Example 11, 6-Chloro-8-(1-phenyl-1H-pyrazol-4-yl)-9-(2,2,2-trifluoroethyl)-9H-pyrido[3,4-b]indole] | 7900 | 40 to 100 | 3900 | 50 to 80
17 | Cc1nccc2c1[nH]c1c(-c3ccc(OCc4ccc5ccccc5n4)cc3)cc(Cl)cc12 [Example 34, 6-Chloro-1-methyl-8-[4-(quinolin-2-ylmethoxy)-phenyl]-9H-pyrido[3,4-b]indole] | 3800 | > 200 | > 1100 | 20 to 50
18 | Cc1nccc2c1[nH]c1c(-c3ccnc(F)c3Br)cc(Cl)cc12 [Example 245, 8-(3-Bromo-2-fluoro-pyridin-4-yl)-6-chloro-1-methyl-9H-pyrido[3,4-b]indole] | 10000 | 40 to 100 | > 1100 | < 20
19 | Cc1nccc2c1[nH]c1c(-c3ccc(OCC4(C)COC4)cc3)cc(Cl)c(C)c12 [Example 8, 6-Chloro-1,5-dimethyl-8-[4-(3-methyl-oxetan-3-ylmethoxy)-phenyl]-9H-pyrido[3,4-b]indole] | 260 | 100 to 200 | 120 | > 80
20 | Cc1nccc2c1[nH]c1c(-c3ccc(OCCn4cccn4)cc3)cc(Cl)cc12 [Example 13, 6-Chloro-1-methyl-8-[4-(2-(1H-pyrazol-1-yl)ethoxy)-phenyl]-9H-pyrido[3,4-b]indole] | 1100 | > 200 | 120 | > 80
21 | Cc1nccc2c1[nH]c1c(-c3cccc(NC(=O)Nc4ccc(F)cc4F)c3)cc(Cl)cc12 [Example 230, 1-[3-(6-Chloro-1-methyl-9H-pyrido[3,4-b]indol-8-yl)-phenyl]-3-(2,4-difluoro-phenyl)-urea] | 21000 | < 40 | > 3300 | < 20
22 | Cc1nccc2c1[nH]c1c(-c3cccc(C=O)c3)cc(Cl)cc12 [Example 250, 3-(6-Chloro-1-methyl-9H-pyrido[3,4-b]indol-8-yl)-benzaldehyde] | 4900 | 100 to 200 | > 3300 | 50 to 80
23 | COc1ccc(-c2cc(Cl)cc3c4ccnc(C)c4n(C)c23)cc1 [Example 22, 6-Chloro-8-(4-methoxy-phenyl)-1,9-dimethyl-9H-pyrido[3,4-b]indole] | 4000 | > 200 | 630 | > 80
